Laboratory results: the NIST ThermoML archive (doi:10.1021/je100148h)

Test: xn = mol fraction of the nth substance listed
Conditions: Fluid (supercritical or subcritical phases), Burnett expansion method

CCC [propane] + O=C=O
Conditions	mass density [kg/m3]
319.99 K, 766.06 kPa, x2 = 0.8017	13.1764
320 K, 410.29 kPa, x2 = 0.8017	6.9285
320 K, 561.41 kPa, x2 = 0.8017	9.5546
320 K, 1040.9 kPa, x2 = 0.8017	18.1699
320 K, 1137.2 kPa, x2 = 0.5158	20.5385
320 K, 1406.4 kPa, x2 = 0.8017	25.056
320 K, 1885.5 kPa, x2 = 0.8017	34.5507
320 K, 2500.6 kPa, x2 = 0.8017	47.6423
320 K, 3266.5 kPa, x2 = 0.8017	65.693
320.01 K, 158.39 kPa, x2 = 0.8017	2.6416
320.01 K, 177.71 kPa, x2 = 0.5158	2.9791
320.01 K, 217.81 kPa, x2 = 0.8017	3.6431
320.01 K, 244.02 kPa, x2 = 0.5158	4.1102
320.01 K, 299.21 kPa, x2 = 0.8017	5.0239
320.01 K, 334.43 kPa, x2 = 0.5158	5.6704
320.01 K, 457.2 kPa, x2 = 0.5158	7.8226
320.01 K, 622.82 kPa, x2 = 0.5158	10.7917
320.01 K, 844.37 kPa, x2 = 0.5158	14.8878
320.01 K, 1518.1 kPa, x2 = 0.5158	28.332
320.01 K, 1999.6 kPa, x2 = 0.5158	39.0832
320.01 K, 2584 kPa, x2 = 0.5158	53.9126
329.98 K, 579.89 kPa, x2 = 0.8017	9.5517
329.99 K, 791.85 kPa, x2 = 0.8017	13.1719
329.99 K, 1457.4 kPa, x2 = 0.8017	25.0477
329.99 K, 3418.1 kPa, x2 = 0.8017	65.6701
330 K, 308.75 kPa, x2 = 0.8017	5.0223
330 K, 423.55 kPa, x2 = 0.8017	6.9261
330 K, 1958.2 kPa, x2 = 0.8017	34.5379
330 K, 2604.9 kPa, x2 = 0.8017	47.625
330 K, 4401.1 kPa, x2 = 0.8017	90.5446
330.01 K, 163.4 kPa, x2 = 0.8017	2.6407
330.01 K, 183.36 kPa, x2 = 0.5158	2.9774
330.01 K, 224.73 kPa, x2 = 0.8017	3.6418
330.01 K, 251.86 kPa, x2 = 0.5158	4.1078
330.01 K, 345.31 kPa, x2 = 0.5158	5.667
330.01 K, 472.35 kPa, x2 = 0.5158	7.8181
330.01 K, 644.04 kPa, x2 = 0.5158	10.7856
330.01 K, 874.2 kPa, x2 = 0.5158	14.879
330.01 K, 1077.1 kPa, x2 = 0.8017	18.1629
330.01 K, 1179.4 kPa, x2 = 0.5158	20.5259
330.01 K, 1578.5 kPa, x2 = 0.5158	28.3153
330.01 K, 2086.8 kPa, x2 = 0.5158	39.0593
330.01 K, 2711.7 kPa, x2 = 0.5158	53.8795
330.01 K, 3442.6 kPa, x2 = 0.5158	74.3214
339.99 K, 598.29 kPa, x2 = 0.8017	9.5479
339.99 K, 817.54 kPa, x2 = 0.8017	13.1668
339.99 K, 1508.1 kPa, x2 = 0.8017	25.0378
340 K, 231.59 kPa, x2 = 0.8017	3.6405
340 K, 436.79 kPa, x2 = 0.8017	6.9234
340 K, 2030.2 kPa, x2 = 0.8017	34.5251
340 K, 2708.2 kPa, x2 = 0.8017	47.606
340 K, 3567.9 kPa, x2 = 0.8017	65.643
340 K, 4621.3 kPa, x2 = 0.8017	90.5058
340.01 K, 168.38 kPa, x2 = 0.8017	2.6397
340.01 K, 189.01 kPa, x2 = 0.5158	2.9763
340.01 K, 259.67 kPa, x2 = 0.5158	4.1062
340.01 K, 318.3 kPa, x2 = 0.8017	5.0202
340.01 K, 487.5 kPa, x2 = 0.5158	7.8151
340.01 K, 665.18 kPa, x2 = 0.5158	10.7812
340.01 K, 903.91 kPa, x2 = 0.5158	14.873
340.01 K, 1113.1 kPa, x2 = 0.8017	18.156
340.01 K, 1221.3 kPa, x2 = 0.5158	20.5179
340.01 K, 1638.3 kPa, x2 = 0.5158	28.3036
340.01 K, 2172.9 kPa, x2 = 0.5158	39.0436
340.01 K, 2837.3 kPa, x2 = 0.5158	53.8584
340.01 K, 3628.8 kPa, x2 = 0.5158	74.2902
340.01 K, 4509 kPa, x2 = 0.5158	102.472
340.01 K, 5849.8 kPa, x2 = 0.8017	124.787
340.02 K, 356.19 kPa, x2 = 0.5158	5.6647
350.01 K, 173.33 kPa, x2 = 0.8017	2.6389
350.01 K, 194.63 kPa, x2 = 0.5158	2.9748
350.01 K, 267.49 kPa, x2 = 0.5158	4.1042
350.01 K, 367.05 kPa, x2 = 0.5158	5.662
350.01 K, 502.56 kPa, x2 = 0.5158	7.8112
350.01 K, 616.66 kPa, x2 = 0.8017	9.5444
350.01 K, 686.24 kPa, x2 = 0.5158	10.776
350.01 K, 843.17 kPa, x2 = 0.8017	13.1618
350.01 K, 933.45 kPa, x2 = 0.5158	14.8658
350.01 K, 1149 kPa, x2 = 0.8017	18.1499
350.01 K, 1263 kPa, x2 = 0.5158	20.5077
350.01 K, 1558.6 kPa, x2 = 0.8017	25.0284
350.01 K, 1697.7 kPa, x2 = 0.5158	28.2897
350.01 K, 2101.9 kPa, x2 = 0.8017	34.5131
350.01 K, 2258.2 kPa, x2 = 0.5158	39.0243
350.01 K, 2810.8 kPa, x2 = 0.8017	47.5894
350.01 K, 2961.5 kPa, x2 = 0.5158	53.8306
350.01 K, 3716.3 kPa, x2 = 0.8017	65.6181
350.01 K, 3812 kPa, x2 = 0.5158	74.2525
350.01 K, 4782.9 kPa, x2 = 0.5158	102.417
350.01 K, 4838.8 kPa, x2 = 0.8017	90.4734
350.01 K, 5812.8 kPa, x2 = 0.5158	141.262
350.02 K, 238.49 kPa, x2 = 0.8017	3.6392
350.02 K, 327.8 kPa, x2 = 0.8017	5.0187
350.02 K, 450.01 kPa, x2 = 0.8017	6.9209
350.02 K, 6175.3 kPa, x2 = 0.8017	124.74
360.01 K, 200.24 kPa, x2 = 0.5158	2.9738
360.01 K, 275.27 kPa, x2 = 0.5158	4.1028
360.01 K, 377.87 kPa, x2 = 0.5158	5.66
360.01 K, 517.62 kPa, x2 = 0.5158	7.8085
360.01 K, 707.21 kPa, x2 = 0.5158	10.7723
360.01 K, 962.87 kPa, x2 = 0.5158	14.8606
360.01 K, 1184.7 kPa, x2 = 0.8017	18.1432
360.01 K, 1304.5 kPa, x2 = 0.5158	20.5005
360.01 K, 1608.9 kPa, x2 = 0.8017	25.0192
360.01 K, 1756.6 kPa, x2 = 0.5158	28.2797
360.01 K, 2173.2 kPa, x2 = 0.8017	34.4994
360.01 K, 2342.9 kPa, x2 = 0.5158	39.0102
360.01 K, 2912.6 kPa, x2 = 0.8017	47.5708
360.01 K, 3084.3 kPa, x2 = 0.5158	53.8108
360.01 K, 3992.6 kPa, x2 = 0.5158	74.2241
360.01 K, 5052 kPa, x2 = 0.5158	102.377
